We go through 21 compounds from ChEMBL document CHEMBL1201862, “PubChem BioAssay data set” (2004).

Active and inactive are the calls of the source.

In assay [1] the target is T1, Short transient receptor potential channel 4 (Mus musculus, UniProt Q9QUQ5).
T1 sequence (Q9QUQ5 whole entry): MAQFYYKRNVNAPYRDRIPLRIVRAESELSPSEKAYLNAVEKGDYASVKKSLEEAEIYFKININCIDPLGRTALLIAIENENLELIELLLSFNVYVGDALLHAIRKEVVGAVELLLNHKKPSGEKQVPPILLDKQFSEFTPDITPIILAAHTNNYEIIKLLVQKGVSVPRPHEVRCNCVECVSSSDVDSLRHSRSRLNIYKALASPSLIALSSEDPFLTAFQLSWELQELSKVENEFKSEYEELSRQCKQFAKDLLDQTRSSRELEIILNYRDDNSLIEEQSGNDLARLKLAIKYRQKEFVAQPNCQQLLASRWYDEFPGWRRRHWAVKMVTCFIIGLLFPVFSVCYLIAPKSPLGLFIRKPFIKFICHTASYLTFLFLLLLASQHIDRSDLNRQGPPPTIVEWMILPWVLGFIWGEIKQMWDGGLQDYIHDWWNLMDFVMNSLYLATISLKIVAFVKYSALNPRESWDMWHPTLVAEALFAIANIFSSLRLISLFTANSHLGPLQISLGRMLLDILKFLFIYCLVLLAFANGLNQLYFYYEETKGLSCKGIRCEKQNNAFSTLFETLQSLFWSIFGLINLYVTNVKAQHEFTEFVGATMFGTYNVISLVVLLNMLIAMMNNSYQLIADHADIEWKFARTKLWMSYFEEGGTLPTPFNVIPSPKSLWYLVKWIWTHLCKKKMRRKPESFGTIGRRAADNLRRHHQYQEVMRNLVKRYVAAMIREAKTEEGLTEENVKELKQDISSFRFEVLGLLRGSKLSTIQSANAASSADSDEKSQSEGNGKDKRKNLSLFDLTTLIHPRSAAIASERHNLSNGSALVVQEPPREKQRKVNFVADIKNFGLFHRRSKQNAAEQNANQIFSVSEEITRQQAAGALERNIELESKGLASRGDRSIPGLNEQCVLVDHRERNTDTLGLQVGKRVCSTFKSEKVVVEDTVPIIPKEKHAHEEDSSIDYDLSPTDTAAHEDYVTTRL
Description: mouse TRPC4 channel activators, dose response, cell-based, HEK293 TRPC4/mu-opioid, Fluo-4 calcium (AID 434937). The assay is classed as functional.

The target of assay [2] is T2, Fatty acid synthase (Homo sapiens, UniProt P49327). Description: FAS thioesterase domain inhibitors, dose response, biochemical, endpoint fluorescence intensity, uHTS hits (AID 624327).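 Note: fluorescence from hydrolysis of an O-methyl fluorescein acyl ester substrate by the enzyme.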 Type of assay: functional.
T2 sequence (P49327 whole entry, the tested form may be a part): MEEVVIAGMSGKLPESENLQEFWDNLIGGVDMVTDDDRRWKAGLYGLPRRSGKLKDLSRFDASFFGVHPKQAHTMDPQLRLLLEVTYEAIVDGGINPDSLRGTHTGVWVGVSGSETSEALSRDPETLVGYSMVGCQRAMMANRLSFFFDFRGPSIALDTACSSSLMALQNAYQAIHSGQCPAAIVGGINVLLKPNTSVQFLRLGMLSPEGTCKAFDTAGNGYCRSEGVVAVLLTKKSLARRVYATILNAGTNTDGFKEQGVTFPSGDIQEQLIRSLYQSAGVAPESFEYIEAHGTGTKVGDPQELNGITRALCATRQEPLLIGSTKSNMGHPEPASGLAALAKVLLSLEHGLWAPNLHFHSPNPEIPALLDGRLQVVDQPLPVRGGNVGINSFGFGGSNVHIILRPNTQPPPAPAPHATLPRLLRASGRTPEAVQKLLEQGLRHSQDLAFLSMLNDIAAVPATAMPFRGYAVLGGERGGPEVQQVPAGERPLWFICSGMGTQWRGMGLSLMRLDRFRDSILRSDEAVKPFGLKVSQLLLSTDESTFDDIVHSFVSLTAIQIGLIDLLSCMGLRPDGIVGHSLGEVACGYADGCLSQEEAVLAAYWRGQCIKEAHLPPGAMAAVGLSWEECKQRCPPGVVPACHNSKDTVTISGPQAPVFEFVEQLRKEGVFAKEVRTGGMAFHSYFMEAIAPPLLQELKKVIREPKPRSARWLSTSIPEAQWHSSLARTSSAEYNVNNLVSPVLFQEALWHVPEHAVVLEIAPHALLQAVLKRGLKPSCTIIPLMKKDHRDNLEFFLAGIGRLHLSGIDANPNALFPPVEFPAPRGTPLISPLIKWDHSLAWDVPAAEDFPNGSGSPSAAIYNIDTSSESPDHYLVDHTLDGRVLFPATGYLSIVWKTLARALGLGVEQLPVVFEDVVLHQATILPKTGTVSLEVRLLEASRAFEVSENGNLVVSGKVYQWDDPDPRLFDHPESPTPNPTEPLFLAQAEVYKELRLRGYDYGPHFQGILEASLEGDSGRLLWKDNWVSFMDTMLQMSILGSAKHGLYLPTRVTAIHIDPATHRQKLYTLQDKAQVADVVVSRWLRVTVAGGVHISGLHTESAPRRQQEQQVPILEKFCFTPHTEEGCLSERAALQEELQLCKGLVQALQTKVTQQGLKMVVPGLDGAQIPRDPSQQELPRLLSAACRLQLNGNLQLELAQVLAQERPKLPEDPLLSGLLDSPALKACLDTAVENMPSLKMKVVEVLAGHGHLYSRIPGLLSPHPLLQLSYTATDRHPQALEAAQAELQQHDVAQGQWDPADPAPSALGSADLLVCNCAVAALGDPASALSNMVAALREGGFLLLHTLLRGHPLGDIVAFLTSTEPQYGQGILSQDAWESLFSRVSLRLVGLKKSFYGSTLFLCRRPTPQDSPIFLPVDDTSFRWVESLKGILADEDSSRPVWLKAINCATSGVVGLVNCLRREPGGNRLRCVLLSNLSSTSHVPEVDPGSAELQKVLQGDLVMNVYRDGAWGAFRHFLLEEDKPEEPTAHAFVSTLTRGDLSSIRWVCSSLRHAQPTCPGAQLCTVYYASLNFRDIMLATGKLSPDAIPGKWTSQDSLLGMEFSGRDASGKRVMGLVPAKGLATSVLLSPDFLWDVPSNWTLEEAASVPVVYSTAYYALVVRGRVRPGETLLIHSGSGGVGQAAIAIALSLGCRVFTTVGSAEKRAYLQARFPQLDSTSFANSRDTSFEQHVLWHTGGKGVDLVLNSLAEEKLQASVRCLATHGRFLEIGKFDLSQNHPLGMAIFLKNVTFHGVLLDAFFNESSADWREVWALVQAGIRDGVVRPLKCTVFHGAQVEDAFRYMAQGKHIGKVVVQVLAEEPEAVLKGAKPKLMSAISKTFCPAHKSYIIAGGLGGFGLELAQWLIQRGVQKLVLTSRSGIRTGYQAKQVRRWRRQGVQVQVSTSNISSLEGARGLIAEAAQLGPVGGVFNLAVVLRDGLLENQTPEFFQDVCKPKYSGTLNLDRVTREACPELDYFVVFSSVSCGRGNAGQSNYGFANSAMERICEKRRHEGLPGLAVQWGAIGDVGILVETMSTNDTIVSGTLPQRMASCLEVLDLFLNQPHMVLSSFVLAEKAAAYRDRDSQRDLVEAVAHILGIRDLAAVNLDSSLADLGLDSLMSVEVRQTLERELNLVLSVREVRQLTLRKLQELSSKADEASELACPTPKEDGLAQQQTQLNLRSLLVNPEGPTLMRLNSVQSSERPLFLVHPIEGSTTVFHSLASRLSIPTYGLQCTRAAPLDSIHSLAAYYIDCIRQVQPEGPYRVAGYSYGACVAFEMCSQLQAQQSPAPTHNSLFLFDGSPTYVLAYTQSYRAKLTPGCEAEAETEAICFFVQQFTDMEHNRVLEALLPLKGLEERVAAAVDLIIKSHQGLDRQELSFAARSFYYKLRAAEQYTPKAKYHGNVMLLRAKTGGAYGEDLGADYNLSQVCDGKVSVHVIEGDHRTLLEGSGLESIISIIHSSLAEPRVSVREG
Assay [3] has as its target T2, Fatty acid synthase. The assay is described as follows: FAS thioesterase domain inhibitors, dose response, biochemical, kinetic fluorescence intensity (AID 624326).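 Note: rate of fluorescence rise from hydrolysis of a fluorogenic O-methyl fluorescein ester substrate.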 The assay is classed as functional.
Assay [4] addresses T3, Corticotropin-releasing factor receptor 2/Corticotropin-releasing factor-binding protein (Homo sapiens, UniProt P24387+Q13324).
T3 sequence (Q13324 whole entry): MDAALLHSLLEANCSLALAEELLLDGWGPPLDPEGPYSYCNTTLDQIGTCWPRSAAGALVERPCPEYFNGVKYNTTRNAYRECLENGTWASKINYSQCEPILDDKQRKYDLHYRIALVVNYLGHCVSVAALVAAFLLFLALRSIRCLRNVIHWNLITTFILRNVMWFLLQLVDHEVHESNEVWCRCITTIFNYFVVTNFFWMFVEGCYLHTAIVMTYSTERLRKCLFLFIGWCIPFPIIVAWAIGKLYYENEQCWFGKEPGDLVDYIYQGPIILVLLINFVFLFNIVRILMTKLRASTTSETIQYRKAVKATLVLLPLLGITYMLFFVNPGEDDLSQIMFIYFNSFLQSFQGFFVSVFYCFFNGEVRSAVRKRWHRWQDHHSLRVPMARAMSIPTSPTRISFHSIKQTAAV
T3 sequence (P24387 whole entry): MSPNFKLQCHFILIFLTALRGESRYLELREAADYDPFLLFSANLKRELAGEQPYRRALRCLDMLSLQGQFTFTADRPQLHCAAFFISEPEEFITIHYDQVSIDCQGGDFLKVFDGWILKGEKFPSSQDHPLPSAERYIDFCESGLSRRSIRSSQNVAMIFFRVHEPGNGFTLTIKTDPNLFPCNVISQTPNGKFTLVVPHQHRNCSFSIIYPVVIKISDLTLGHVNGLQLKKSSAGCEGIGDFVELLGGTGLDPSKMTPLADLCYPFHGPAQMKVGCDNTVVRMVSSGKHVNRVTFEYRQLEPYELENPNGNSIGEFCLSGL
Description: activators of CRF receptor 2 with binding protein – uHTS hits, confirmation (AID 602473). Type of assay: functional. To be noted: read-out: EC50_Mean.

Assay [5] is described as follows: cytotoxicity toward NIH3T3 fibroblasts, dose response, counter-screen, cell-based, ATP luminescence, mouse fibroblasts (AID 2010).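 Note: cells exposed to compound for about 90 hours before reading.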 The assay is classed as functional. (In general: A counterscreen serves to expose hits that act by an unwanted route or on another target.)
A short description of assay [6]: inhibitors of intracellular T. cruzi replication, confirmation, NIH3T3 host cells, beta-gal luminescence (AID 2044).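 Note: intracellular parasites grown in NIH/3T3 mouse fibroblasts as host cells; luminescent beta-galactosidase reporter signal from transgenic T. cruzi replicating inside host cells; inhibitors lower the luminescence signal.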 Type of assay: functional, cell-based.
For assay [7], the target named is T4, DNA repair and recombination protein RAD54-like (Homo sapiens, UniProt Q92698).
T4 sequence (Q92698 whole entry): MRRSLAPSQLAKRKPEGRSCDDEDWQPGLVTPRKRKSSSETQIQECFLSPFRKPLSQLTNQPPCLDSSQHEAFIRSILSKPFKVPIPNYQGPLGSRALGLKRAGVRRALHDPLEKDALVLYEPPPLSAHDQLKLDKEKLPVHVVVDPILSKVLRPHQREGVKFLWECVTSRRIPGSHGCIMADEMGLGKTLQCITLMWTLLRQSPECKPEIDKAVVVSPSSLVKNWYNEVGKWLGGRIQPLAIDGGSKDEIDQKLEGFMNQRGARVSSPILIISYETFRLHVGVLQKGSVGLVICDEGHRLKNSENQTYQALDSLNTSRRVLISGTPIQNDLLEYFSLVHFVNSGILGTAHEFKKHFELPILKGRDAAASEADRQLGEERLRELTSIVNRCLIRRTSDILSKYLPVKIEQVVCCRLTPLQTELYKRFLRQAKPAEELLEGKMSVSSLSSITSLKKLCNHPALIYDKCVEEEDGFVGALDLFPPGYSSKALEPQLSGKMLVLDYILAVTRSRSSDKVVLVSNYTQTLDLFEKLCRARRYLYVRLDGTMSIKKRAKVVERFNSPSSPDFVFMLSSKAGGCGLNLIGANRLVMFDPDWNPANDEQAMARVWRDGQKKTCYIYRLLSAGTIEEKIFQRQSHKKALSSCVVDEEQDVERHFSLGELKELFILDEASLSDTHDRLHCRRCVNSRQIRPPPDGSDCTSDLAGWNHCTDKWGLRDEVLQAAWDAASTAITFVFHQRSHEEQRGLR
The assay is described as follows: inhibitors of human RAD54 branch migration, confirmation, biochemical, fluorescence, cherry-picked samples, dose series (AID 651657). Type of assay: functional.

The target of assay [8] is T5, DNA repair protein RAD52 homolog (Homo sapiens, UniProt P43351).
T5 sequence (P43351 whole entry): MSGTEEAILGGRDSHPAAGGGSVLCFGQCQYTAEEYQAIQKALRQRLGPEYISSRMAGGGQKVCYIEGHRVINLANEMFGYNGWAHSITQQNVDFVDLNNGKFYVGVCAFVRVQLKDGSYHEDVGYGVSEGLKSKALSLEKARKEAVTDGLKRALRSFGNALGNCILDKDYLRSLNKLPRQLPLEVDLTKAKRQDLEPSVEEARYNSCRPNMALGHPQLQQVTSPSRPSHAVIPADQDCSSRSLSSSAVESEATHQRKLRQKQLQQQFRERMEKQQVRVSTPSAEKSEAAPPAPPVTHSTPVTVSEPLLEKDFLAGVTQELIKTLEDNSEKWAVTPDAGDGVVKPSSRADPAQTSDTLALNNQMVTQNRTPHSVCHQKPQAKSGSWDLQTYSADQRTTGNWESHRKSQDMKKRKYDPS
Type of assay: functional, biochemical.

Assay [9] deals with Voltage-dependent T-type calcium channel subunit alpha-1H (Homo sapiens, UniProt O95180). Type of assay: functional.
Sequence of Voltage-dependent T-type calcium channel subunit alpha-1H (O95180 whole entry): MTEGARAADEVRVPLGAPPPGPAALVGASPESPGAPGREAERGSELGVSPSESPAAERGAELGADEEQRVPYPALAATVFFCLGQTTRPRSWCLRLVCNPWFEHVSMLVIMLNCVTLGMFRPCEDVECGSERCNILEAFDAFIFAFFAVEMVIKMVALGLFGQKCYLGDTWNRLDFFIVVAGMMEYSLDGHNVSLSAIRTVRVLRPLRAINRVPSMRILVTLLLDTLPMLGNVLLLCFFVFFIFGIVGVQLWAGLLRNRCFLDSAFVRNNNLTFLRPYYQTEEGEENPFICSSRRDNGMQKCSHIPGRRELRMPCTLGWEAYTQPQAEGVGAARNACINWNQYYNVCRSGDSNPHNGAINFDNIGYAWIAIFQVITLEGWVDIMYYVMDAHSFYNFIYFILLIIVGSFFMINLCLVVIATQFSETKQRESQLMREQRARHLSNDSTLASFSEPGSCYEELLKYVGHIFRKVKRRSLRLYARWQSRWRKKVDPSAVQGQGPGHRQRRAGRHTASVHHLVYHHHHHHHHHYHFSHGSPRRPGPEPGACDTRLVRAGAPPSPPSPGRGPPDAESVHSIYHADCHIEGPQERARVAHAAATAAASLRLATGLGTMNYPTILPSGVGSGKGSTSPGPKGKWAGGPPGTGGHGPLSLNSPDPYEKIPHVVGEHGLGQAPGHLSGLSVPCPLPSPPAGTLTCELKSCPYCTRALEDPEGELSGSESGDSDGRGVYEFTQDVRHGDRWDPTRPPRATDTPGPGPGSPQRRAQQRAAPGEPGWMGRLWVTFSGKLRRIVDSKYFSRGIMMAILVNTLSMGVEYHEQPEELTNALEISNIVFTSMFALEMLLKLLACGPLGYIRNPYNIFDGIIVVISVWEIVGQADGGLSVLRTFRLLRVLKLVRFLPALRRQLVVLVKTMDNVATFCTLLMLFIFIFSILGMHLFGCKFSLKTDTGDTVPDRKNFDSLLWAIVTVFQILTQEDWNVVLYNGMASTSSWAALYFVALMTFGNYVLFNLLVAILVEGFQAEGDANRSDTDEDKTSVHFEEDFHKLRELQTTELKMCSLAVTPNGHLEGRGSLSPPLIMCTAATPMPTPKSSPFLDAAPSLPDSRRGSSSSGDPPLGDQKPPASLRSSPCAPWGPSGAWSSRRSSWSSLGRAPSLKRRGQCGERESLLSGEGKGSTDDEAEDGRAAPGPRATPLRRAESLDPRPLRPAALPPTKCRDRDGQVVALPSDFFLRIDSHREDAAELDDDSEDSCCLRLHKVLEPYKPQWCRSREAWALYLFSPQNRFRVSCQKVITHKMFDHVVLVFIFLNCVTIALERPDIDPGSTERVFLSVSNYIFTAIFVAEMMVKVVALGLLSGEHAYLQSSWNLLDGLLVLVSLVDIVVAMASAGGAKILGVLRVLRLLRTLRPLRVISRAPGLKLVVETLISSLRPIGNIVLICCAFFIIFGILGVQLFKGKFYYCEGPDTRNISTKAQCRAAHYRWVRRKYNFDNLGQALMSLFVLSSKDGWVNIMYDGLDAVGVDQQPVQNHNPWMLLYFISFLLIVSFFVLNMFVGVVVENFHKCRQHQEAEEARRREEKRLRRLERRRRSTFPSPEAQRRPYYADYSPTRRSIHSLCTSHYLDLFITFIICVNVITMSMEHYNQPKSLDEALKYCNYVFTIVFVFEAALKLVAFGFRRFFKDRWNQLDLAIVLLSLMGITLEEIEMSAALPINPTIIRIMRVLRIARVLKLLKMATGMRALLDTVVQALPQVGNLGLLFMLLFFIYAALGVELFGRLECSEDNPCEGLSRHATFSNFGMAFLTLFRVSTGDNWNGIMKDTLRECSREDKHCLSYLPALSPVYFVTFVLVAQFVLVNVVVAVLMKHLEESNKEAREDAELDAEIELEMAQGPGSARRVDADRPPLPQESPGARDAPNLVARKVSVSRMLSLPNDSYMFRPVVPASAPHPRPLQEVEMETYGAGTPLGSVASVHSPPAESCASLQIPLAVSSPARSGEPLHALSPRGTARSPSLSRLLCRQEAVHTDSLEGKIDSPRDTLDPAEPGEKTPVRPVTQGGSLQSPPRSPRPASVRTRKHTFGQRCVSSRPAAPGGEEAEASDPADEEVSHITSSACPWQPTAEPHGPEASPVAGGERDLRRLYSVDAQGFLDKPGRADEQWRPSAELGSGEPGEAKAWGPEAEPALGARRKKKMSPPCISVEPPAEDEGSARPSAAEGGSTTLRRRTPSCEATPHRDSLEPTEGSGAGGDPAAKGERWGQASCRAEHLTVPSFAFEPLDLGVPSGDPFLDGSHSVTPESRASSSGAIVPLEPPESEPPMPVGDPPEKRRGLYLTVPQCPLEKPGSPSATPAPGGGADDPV
In assay [10] the target is Cytochrome P450 2C19 (Homo sapiens, UniProt P33261). The assay is described as follows: Cytochrome panel assay with activity outcomes. Panel member name: p450-cyp2c19 Compounds with AC50 equal or less than 10 uM are considered active. Type of assay: functional. To be noted: read-out: AC50.
Assay [11] has as its target Cytochrome P450 2C9 (Homo sapiens, UniProt P11712).
Assay [12] relates to Vero. The assay is described as follows: cells. To be noted: Chlorocebus sabaeus. Type of assay: functional.

On to `CCn1c(N2CCN(C(S)=NCCc3ccccc3)CC2)nc2ccccc21`, for which the EC50 in assay [1] was 0.376 µM (active). `CCOc1ccc(NC(=O)c2cc([N+](=O)[O-])ccc2N2CCOCC2)cc1`: the half-inhibitory concentration (IC50) (commonly the concentration that inhibits the measured activity by half) in assay [2] is 13.4 µM (active); in assay [3] it was 13.7 µM (active). For `O=C1c2ccccc2S(=O)(=O)c2cc(C(=O)N(c3ccccn3)c3ccccn3)ccc21`, the EC50 in assay [1] was 1.88 µM (active); in assay [4], 4.15 µM (active). For `Cc1c([N+](=O)[O-])cc(C(=O)Nc2ccc(Cc3ccncc3)cc2)cc1[N+](=O)[O-]`, the EC50 was > 60 µM (not active) in [5] and 0.799 µM (active) in [6]. For the same compound, the IC50 in [2] was 7.27 µM (active); in [3], 8.08 µM (active). As to `CCCN1CCN(C(S)=Nc2ccc3nc(N4CCN(CC)CC4)cc(C)c3c2)CC1`, the concentration at half-maximal activity (AC50) (usually the midpoint of the concentration-response curve, whichever way the signal moves) in [7] is 82.8 µM (active); in assay [8], 15.3 µM (active). As for `CCC(SC1=N/C(=C/c2ccccc2OC)C(=O)N1c1ccccc1)C(=O)Nc1cc(C)on1` (stereo not given), the EC50 in [9] was 4.23 µM (active). Consider `CCOc1ccccc1CN1CCNC(=O)C1CC(=O)NCCc1ccccn1` (stereo not given), for which the EC50 in assay [1] is 5.96 µM (active). On the same count and under the same terms, to `COc1ccc(C(CNC(=O)Cc2cccs2)N(C)C)cc1` (stereo not given) belongs 0.237 µM (active). On to `CN(C)CCCN(C(=O)c1ccc(C(=O)c2ccccc2)cc1)c1nc2ccc(F)cc2s1`, for which the EC50 is > 60 µM (not active) in assay [5], 0.104 µM (active) in assay [6] and 5.96 µM (active) in assay [1]. For the compound `COc1ccc(C(=O)NC(C)CCc2ccccc2)cc1[N+](=O)[O-]` (stereo not given), the figures for the IC50 in assay [2] and in [3] were 13.4 µM (active) and 9.58 µM (active), respectively. Take `COc1ccc2[nH]c3c(c2c1)CCN1C(=O)C(CC(=O)NCc2ccco2)C[C@H](C(=O)N2CCOCC2)[C@@]31CCC1CCCC1` (stereo not given in full): the IC50 was 5.98 µM (active) in assay [2] and 4.73 µM (active) in assay [3].

As for `Cc1ccccc1Cn1nc(C)c(NC(=O)c2noc3c2CCc2ccccc2-3)c1C`, the EC50 in [9] was 1.92 µM (active). As to `Cc1nn(Cc2ccc(Cl)c(Cl)c2)c(C)c1NC(=O)c1cn(-c2ccccc2)nc1-c1ccccc1`, the EC50 in [9] was 5.29 µM (active); in assay [5], > 60 µM (not active); in assay [6], 1.99 µM (active). As for `CN(C)CCN(C(=O)CN1C(=O)c2ccccc2C1=O)c1nc2cc3c(cc2s1)OCO3`, the AC50 in [7] is 41.5 µM (active); in assay [8], 23.9 µM (active). On to `COCCn1nnnc1C(c1cccs1)N1CCN(c2cccc(C(F)(F)F)c2)CC1` (stereo not given), for which the EC50 in assay [9] is 97.8 µM (active).

As for `COC(=O)[C@@]1(Cc2ccc(F)cc2)[C@H]2c3cc(C(=O)N(C)C)n(CCc4ccccn4)c3C[C@H]2CN1C(=O)c1ccccc1`, the values for the AC50 in [10] and in [11] were 39.8 µM (inconclusive) and 10 µM (inconclusive), respectively. Moreover, the EC50 in assay [1] is 5.96 µM (active). `COc1ccc2cc3cc(C(=O)NCCCN4CCC(C)CC4)oc3nc2c1`: the AC50 in assay [7] is 29.2 µM (active).

Turning to `COc1ccc(-c2noc(CSc3nnc(Cc4ccccc4)n3-c3cccc(C)c3)n2)cc1OC`, the EC50 in assay [9] was 4.35 µM (active). With `COc1ccc(Cl)cc1-c1cc(C(=O)NCc2cccc(Cl)c2)[nH]n1`, the 50% inhibitory concentration (IC50) in assay [2] was 12.4 µM (active); in assay [3], 5.46 µM (active). In the case of `CCN(CC)CC(O)c1ccc2ccc3ccc(O)cc3c2c1` (stereo not given), the AC50 was 23.3 µM (active) in [7] and 7.92 µM (active) in [8]. Further, the half-maximal cytotoxic concentration (CC50) – broadly, the concentration at which the toxic effect on the cells reaches its halfway point – in assay [12] was > 25 µM (active). With `COc1ccc(/C=C(/NC(=O)c2ccc([N+](=O)[O-])cc2)C(=O)NCCCN(C)C)cc1`, the figures for the IC50 in [2] and in assay [3] were 5.03 µM (active) and 3.13 µM (active), respectively.
